From US6355640B1, “Pyrazolopyridine adenosine antagonists” (Fujisawa Pharmaceutical Co., Ltd., priority 1993, dated 2002)
Marks after values point to notes of the source that are not given here.

Tests used:
[1] = test system: cisplatin induced renal failure; assay: Test 1. Effect on Cisplatin-induced Renal Failure; assay type: in vivo; settings: Male JCL:SD rats, cisplatin 4.5 mg/kg i.p. at the same time as first dose; test compound 0.1 mg/kg i.v. twice a day for 3 days; measured on the 8th day; mean; p < 0.01 vs control group
Procedure: Male JCL:SD strain rats aged 9 weeks weighing 280-300 g received cisplatin (4.5 mg/kg) intraperitoneally. Normal rats were injected with an equal amount of saline instead of cisplatin. The effect of repeated intravenous administration of the test compound (0.1 mg/kg, twice a day) on cisplatin induced renal failure was investigated in rats. Cisplatin was given at the same time of the first dose of the test compound (for the test group) or vehicle (saline) (for the control group), and the test compound or vehicle was given for 3 days. The plasma creatinine concentrations were measured in all rats on the 8th day.

SMILES	serum creatinine [1]	melting point
O=C(O)CC1=C(n2nc(-c3c(-c4ccccc4)nn4ccccc34)ccc2=O)CCCCC1 [Example 19, 3-[2-(2-carboxymethyl-1-cycloheptenyl)-3-oxo-2,3-dihydropyridazin-6-yl]-2-phenylpyrazolo[1,5-a]-pyridine]	1.32** mg/dl	
CN(C)C(=O)CC1=C(n2nc(-c3c(-c4ccccc4)nn4ccccc34)ccc2=O)CCCC1 [Example 71, 3-[2-{2-(N,N-Dimethylcarbamoyl)methyl-1-cyclohexenyl}-3-oxo-2,3-dihydropyridazin-6-yl]-2-phenylpyrazolo[1,5-a]pyridine]		80 to 81 °C
O=C(CC1=C(n2nc(-c3c(-c4ccccc4)nn4ccccc34)ccc2=O)CCCC1)N1CCSCC1 [Example 80, 3-[2-{2-(Thiomorpholin-4-ylcarbonyl)methyl-1-cyclohexenyl}-3-oxo-2,3-dihydropyridazin-6-yl]-2-phenylpyrazolo[1,5-a]pyridine]		180.5 to 182.5 °C
O=C(CC1=C(n2nc(-c3c(-c4ccccc4)nn4ccccc34)ccc2=O)CCCC1)N1CCN(C(c2ccccc2)(c2ccccc2)c2ccccc2)CC1 [Example 82, 3-[2-{2-(4-Triphenylmethylpiperazin-1-ylcarbonyl)methyl-1-cyclohexenyl}-3-oxo-2,3-dihydropyridazin-6-yl]-2-phenylpyrazolo[1,5-a]pyridine]		249.5 to 250.5 °C
O=C(CC1=C(n2nc(-c3c(-c4ccccc4)nn4ccccc34)ccc2=O)CCCC1)N1CCOCC1 [Example 83, 3-[2-(2-Morpholinocarbonylmethyl-1-cyclohexenyl)-3-oxo-2,3-dihydropyridazin-6-yl]-2-phenylpyrazolo[1,5-a]-pyridine]		202 to 204 °C
O=C(CC1=C(n2nc(-c3c(-c4ccccc4)nn4ccccc34)ccc2=O)CCCC1)N1CCCC1 [Example 84, 3-[2-{2-(Pyrrolidin-1-ylcarbonyl)methyl-1-cyclohexenyl}-3-oxo-2,3-dihydropyridazin-6-yl]-2-phenylpyrazolo[1,5-a]pyridine]		178 to 179 °C
O=C(CC1=C(n2nc(-c3c(-c4ccccc4)nn4ccccc34)ccc2=O)CCCC1)N1CCCCC1 [Example 85, 3-[2-{2-(Piperidinocarbonyl)methyl-1-cyclohexenyl}-3-oxo-2,3-dihydropyridazin-6-yl]-2-phenylpyrazolo[1,5-a]-pyridine]		184 to 185 °C
NN=C1CCCCC1n1nc(-c2c(-c3ccccc3)nn3ccccc23)ccc1=O (stereo not drawn) [Example 88, 3-[2-(2-Hydrazonocyclohexyl)-3-oxo-2,3-dihydropyridazin-6-yl]-2-phenylpyrazolo[1,5-a]pyridine]		161 to 162 °C
CON=C1CCCCC1n1nc(-c2c(-c3ccccc3)nn3ccccc23)ccc1=O (stereo not drawn) [Example 90, 3-[2-{2-(Methoxyimino)cyclohexyl}-3-oxo-2,3-dihydropyridazin-6-yl]-2-phenylpyrazolo[1,5-a]pyridine]		85 to 87 °C
C=C1CCCCC1n1nc(-c2c(-c3ccccc3)nn3ccccc23)ccc1=O (stereo not drawn) [Example 93, 3-[2-(2-methylenecyclohexyl)-3-oxo-2,3-dihydropyridazin-6-yl]-2-phenylpyrazolo[1,5-a]pyridine]		229 to 230 °C (dec.)
CCOC(=O)C=C1CCC(n2nc(-c3c(-c4ccccc4)nn4ccccc34)ccc2=O)CC1 (stereo not drawn) [Example 94, 3-[2-(4-ethoxycarbonylmethylenecyclohexyl)-3-oxo-2,3-dihydropyridazin-6-yl]-2-phenylpyrazolo[1,5-a]-pyridine]		166 to 168 °C
CC(C)(C)OC(=O)CC1=CCCCC1n1nc(-c2c(-c3ccccc3)nn3ccccc23)ccc1=O (stereo not drawn) [Example 95(2), 3-[2-{2-(tert-Butoxycarbonylmethyl)-2-cyclohexen-1-yl}-3-oxo-2,3-dihydropyridazin-6-yl]-2-phenylpyrazolo-[1,5-a]pyridine]		145.5 to 147 °C
CC(C)(C)OC(=O)/C=C1\CCCCC1n1nc(-c2c(-c3ccccc3)nn3ccccc23)ccc1=O (stereo not drawn) [Example 95(3), (E)-3-[2-{2-(tert-Butoxycarbonylmethylene)-cyclohexyl}-3-oxo-2,3-dihydropyridazin-6-yl]-2-phenylpyrazolo[1,5-a]pyridine]		110 to 116 °C
N#C/C=C1\CCCCC1n1nc(-c2c(-c3ccccc3)nn3ccccc23)ccc1=O (stereo not drawn) [Example 96 (E)-isomer, (E)-3-[2-{2-Cyanomethylenecyclohexyl}-3-oxo-2,3-dihydropyridazin-6-yl]-2-phenylpyrazolo[1,5-a]pyridine]		174 to 175 °C
N#C/C=C1/CCCCC1n1nc(-c2c(-c3ccccc3)nn3ccccc23)ccc1=O (stereo not drawn) [Example 96 (Z)-isomer, (Z)-3-[2-{2-Cyanomethylenecyclohexyl}-3-oxo-2,3-dihydropyridazin-6-yl]-2-phenylpyrazolo[1,5-a]pyridine]		70 to 72 °C
CC1CC(C)(C)N=C(/C=C2\CCCCC2n2nc(-c3c(-c4ccccc4)nn4ccccc34)ccc2=O)O1 (stereo not drawn) [Example 97(1), (E)-3-[2-{2-(4,4,6-Trimethyl-5,6-dihydro-4H-1,3-oxazin-2-yl)methylenecyclohexyl}-3-oxo-2,3-dihydropyridazin-6-yl]-2-phenylpyrazolo[1,5-a]pyridine]		156 to 158 °C
CC(C)(C)OC(=O)/C=C1/CCCCC1n1nc(-c2c(-c3ccccc3)nn3ccccc23)ccc1=O (stereo not drawn) [Example 98, (Z)-3-[2-{2-(tert-butoxycarbonyl-methylene)cyclohexyl}-3-oxo-2,3-dihydropyridazin-6-yl]-2-phenylpyrazolo[1,5-a]pyridine]		171 to 172 °C
O=c1ccc(-c2c(-c3ccccc3)nn3ccccc23)nn1-c1ccccc1 [Example 99, 3-(2-phenyl-3-oxo-2,3-dihydropyridazin-6-yl)-2-phenylpyrazolo[1,5-a]pyridine]		170 °C
COc1ccc(-n2nc(-c3c(-c4ccccc4)nn4ccccc34)ccc2=O)cc1 [Example 100, 3-[2-(4-Methoxyphenyl)-3-oxo-2,3-dihydropyridazin-6-yl]-2-phenylpyrazolo[1,5-a]pyridine]		158 °C
COc1ccccc1-n1nc(-c2c(-c3ccccc3)nn3ccccc23)ccc1=O [Example 101, 3-[2-(2-Methoxyphenyl)-3-oxo-2,3-dihydropyridazin-6-yl]-2-phenylpyrazolo[1,5-a]pyridine]		163 °C
O=C1CCCC(n2nc(-c3c(-c4ccccc4)nn4ccccc34)ccc2=O)C1 (stereo not drawn) [Example 102, 3-[2-(3-oxocyclohexyl)-3-oxo-2,3-dihydropyridazin-6-yl]-2-phenylpyrazolo[1,5-a]pyridine]		126 to 127 °C
O=c1ccc(-c2c(-c3ccccc3)nn3ccccc23)nn1C1CCCC(O)C1 (stereo not drawn) [Example 104, 3-[2-(3-hydroxycyclohexyl)-3-oxo-2,3-dihydropyridazin-6-yl]-2-phenylpyrazolo[1,5-a]pyridine]		117 to 118 °C
O=c1ccc(-c2c(-c3ccccc3)nn3ccccc23)nn1C1=C(CCO)CCCC1 [Example 105, 3-[2-{2-(2-hydroxyethyl)-1-cyclohexenyl}-3-oxo-2,3-dihydropyridazin-6-yl]-2-phenylpyrazolo[1,5-a]pyridine]		198 to 199 °C
N#CC1CCCCC1n1nc(-c2c(-c3ccccc3)nn3ccccc23)ccc1=O (stereo not drawn) [Example 108, 3-[2-(2-cyanocyclohexyl)-3-oxo-2,3-dihydropyridazin-6-yl]-2-phenylpyrazolo[1,5-a]pyridine]		214 °C
O=C(O)C1CCCCC1n1nc(-c2c(-c3ccccc3)nn3ccccc23)ccc1=O (stereo not drawn) [Example 109, 3-[2-(2-carboxycyclohexyl)-3-oxo-2,3-dihydropyridazin-6-yl]-2-phenylpyrazolo[1,5-a]pyridine]		164 °C
O=c1ccc(-c2c(-c3ccccc3)nn3ccccc23)nn1C1CCCCC1=Cc1nnn[nH]1 (stereo not drawn) [Example 111, 3-[2-{2-(1H-tetrazol-5-yl)methylenecyclohexyl}-3-oxo-2,3-dihydropyridazin-6-yl]-2-phenylpyrazolo[1,5-a]pyridine]		129 to 131 °C
O=C(CC1=C(n2nc(-c3c(-c4ccccc4)nn4ccccc34)ccc2=O)CCCC1)N1CCNCC1 [Example 113, 3-[2-{2-(piperazin-1-ylcarbonyl)methyl-1-cyclohexenyl}-3-oxo-2,3-dihydropyridazin-6-yl]-2-phenylpyrazolo[1,5-a]pyridine]		208.5 to 209 °C
O=C(O)CN1CCCC(n2nc(-c3c(-c4ccccc4)nn4ccccc34)ccc2=O)C1=O (stereo not drawn) [Example 117, 3-[2-(1-Carboxymethyl-2-oxopiperidin-3-yl)-3-oxo-2,3-dihydropyridazin-6-yl]-2-phenylpyrazolo[1,5-a]pyridine]		145 to 150 °C
COC(=O)COc1cccc2c1CCC(n1nc(-c3c(-c4ccccc4)nn4ccccc34)ccc1=O)C2=O (stereo not drawn) [Example 118, 3-[2-(1-Methoxycarbonylmethoxy-5-oxo-5,6,7,8-tetrahydro-6-naphthyl)-3-oxo-2,3-dihydropyridazin-6-yl]-2-phenylpyrazolo[1,5-a]pyridine]		175 to 176 °C
O=C(O)COc1cccc2c1CCC(n1nc(-c3c(-c4ccccc4)nn4ccccc34)ccc1=O)C2=O (stereo not drawn) [Example 119, 3-[2-(1-Carboxymethoxy-5-oxo-5,6,7,8-tetrahydro-6-naphthyl)-3-oxo-2,3-dihydropyridazin-6-yl]-2-phenylpyrazolo[1,5-a]pyridine]		225 to 227 °C
